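A five-concentration, 48-hour dose response in 96-well plates underlies each endpoint, interpolated linearly between surrounding concentrations. GI50 is the concentration that inhibits growth by half.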 Activity calls are given as the source filed them. Rule as the data show it: active = GI50 up to about 1.1 µM and inactive = higher.
How the values were obtained:
Assay in all cases: NCI tumour cell line growth inhibition, 48 h
SK-OV-3 = system: SK-OV-3
SF-295 = system: SF-295
MCF7 = system: MCF7
OVCAR-3 = system: OVCAR-3
SK-MEL-2 = system: SK-MEL-2
SNB-75 = system: SNB-75
TK-10 = system: TK-10
786-0 = system: 786-0
SN12C = system: SN12C
SK-MEL-5 = system: SK-MEL-5
MDA-MB-435 = system: MDA-MB-435
MOLT-4 = system: MOLT-4
HCT-116 = system: HCT-116
DU-145 = system: DU-145
NCI-H226 = system: NCI-H226
COLO 205 = system: COLO 205
MDA-N = system: MDA-N
Malme-3M = system: Malme-3M
A549 = system: A549
HCC 2998 = system: HCC 2998

Measured: GI50

Cc1ccc(SCC(CF)OC(C)n2cnc3c(Cl)nc(N)nc32)cc1 (centres undefined)
inactive: SK-OV-3 37.2 µM | SF-295 67.9 µM | MCF7 27.2 µM | OVCAR-3 85.7 µM | SK-MEL-2 69.8 µM | SNB-75 > 100 µM | TK-10 > 100 µM | 786-0 58.7 µM | SN12C 43.3 µM | SK-MEL-5 17.3 µM | MDA-MB-435 78.3 µM | MOLT-4 25.8 µM | HCT-116 55.1 µM | DU-145 > 100 µM | NCI-H226 > 100 µM | COLO 205 > 100 µM | MDA-N 89.1 µM | Malme-3M 93.5 µM | A549 44.7 µM | HCC 2998 > 100 µM

CC(O)(/C=C/c1ccccc1)P(=O)(O)c1ccccc1 (centres undefined)
inactive: SK-OV-3 > 100 µM | SF-295 > 100 µM | MCF7 > 100 µM | OVCAR-3 > 100 µM | SK-MEL-2 > 100 µM | SNB-75 37.9 µM | TK-10 > 100 µM | 786-0 > 100 µM | SN12C > 100 µM | SK-MEL-5 > 100 µM | MDA-MB-435 > 100 µM | HCT-116 > 100 µM | DU-145 > 100 µM | NCI-H226 > 100 µM | COLO 205 > 100 µM | MDA-N > 100 µM | Malme-3M > 100 µM | A549 > 100 µM | HCC 2998 47.2 µM

Cc1cc(C)c2ccc(N3CCNCC3)nc2n1
inactive: SK-OV-3 > 100 µM | SF-295 > 100 µM | MCF7 > 100 µM | OVCAR-3 > 100 µM | SK-MEL-2 > 100 µM | SNB-75 > 100 µM | TK-10 > 100 µM | 786-0 67.9 µM | SN12C > 100 µM | MDA-MB-435 > 100 µM | MOLT-4 > 100 µM | HCT-116 84.1 µM | DU-145 > 100 µM | NCI-H226 > 100 µM | COLO 205 64.6 µM | MDA-N > 100 µM | Malme-3M > 100 µM | A549 > 100 µM | HCC 2998 > 100 µM

C=CCOCn1cnc2c(N)ncnc21
inactive: SK-OV-3 > 100 µM | SF-295 > 100 µM | MCF7 > 100 µM | SK-MEL-2 > 100 µM | SNB-75 > 100 µM | TK-10 > 100 µM | 786-0 > 100 µM | SN12C > 100 µM | SK-MEL-5 > 100 µM | MDA-MB-435 > 100 µM | MOLT-4 > 100 µM | HCT-116 > 100 µM | DU-145 > 100 µM | NCI-H226 > 100 µM | COLO 205 > 100 µM | MDA-N > 100 µM | Malme-3M > 100 µM | A549 > 100 µM | HCC 2998 > 100 µM

Cc1cccc(C)c1N1C(=O)C2c3[nH]c4ccccc4c3C3CCC(C(C)(C)C)CC3C2C1=O (centres undefined)
inactive: SK-OV-3 54.5 µM | SF-295 17.3 µM | MCF7 3.47 µM | OVCAR-3 13.7 µM | SK-MEL-2 15.6 µM | TK-10 17.6 µM | 786-0 8.67 µM | SN12C 10.2 µM | SK-MEL-5 14.3 µM | MDA-MB-435 11.4 µM | MOLT-4 24.6 µM | HCT-116 9.25 µM | DU-145 8.45 µM | NCI-H226 18.4 µM | COLO 205 10.9 µM | MDA-N 11.5 µM | Malme-3M 14.4 µM | A549 12.3 µM | HCC 2998 3.85 µM

Cc1ccc(/C(O)=C/c2nc3ccccc3oc2=O)cc1
inactive: SF-295 59.6 µM | MCF7 47.6 µM | OVCAR-3 51.2 µM | SK-MEL-2 > 100 µM | SNB-75 > 100 µM | TK-10 > 100 µM | 786-0 85.3 µM | SN12C > 100 µM | SK-MEL-5 19.2 µM | MDA-MB-435 25.6 µM | MOLT-4 45.4 µM | HCT-116 75.3 µM | DU-145 > 100 µM | NCI-H226 > 100 µM | COLO 205 87.7 µM | MDA-N 23.6 µM | Malme-3M 34.1 µM | A549 > 100 µM | HCC 2998 > 100 µM

CN(C)Cc1cc(C(=O)/C=C/c2ccc(Cl)c(Cl)c2)cc(CN(C)C)c1O
inactive: SF-295 3.38 µM | MCF7 2.48 µM | OVCAR-3 1.59 µM | SNB-75 2.07 µM | 786-0 1.36 µM | SN12C 2.25 µM | SK-MEL-5 1.6 µM | MDA-MB-435 3.26 µM | MOLT-4 3.18 µM | HCT-116 2.77 µM | DU-145 4.84 µM | NCI-H226 3.77 µM | COLO 205 1.29 µM | MDA-N 3.08 µM | Malme-3M 2.88 µM | A549 2.39 µM | HCC 2998 3.4 µM

COc1cc2c(cc1OCCCC(=O)Nc1cc(C(=O)Nc3cc(C(=O)NCCCN(C)C)n(C)n3)n(C)n1)N=CC1CCCN1C2=O (centres undefined)
inactive: SK-OV-3 57.3 µM | SF-295 36.1 µM | MCF7 12.6 µM | OVCAR-3 18.5 µM | SK-MEL-2 16.4 µM | TK-10 19.7 µM | 786-0 16.3 µM | SN12C 16.1 µM | SK-MEL-5 15 µM | MDA-MB-435 16.8 µM | MOLT-4 4.79 µM | HCT-116 16 µM | DU-145 16.4 µM | NCI-H226 44.4 µM | COLO 205 13.5 µM | MDA-N 16.6 µM | Malme-3M 17.2 µM | A549 36.1 µM | HCC 2998 17.3 µM

CC1(C)CCCCCCCCCC(C)(CCCO)C1=O (centres undefined)
inactive: SK-OV-3 17.4 µM | SF-295 18.6 µM | MCF7 17.1 µM | OVCAR-3 19.6 µM | SK-MEL-2 15 µM | SNB-75 17.9 µM | 786-0 16.9 µM | SN12C 18.2 µM | SK-MEL-5 17.5 µM | MDA-MB-435 18.2 µM | MOLT-4 14.1 µM | HCT-116 17.3 µM | DU-145 17.2 µM | NCI-H226 16.1 µM | COLO 205 16.3 µM | MDA-N 16.4 µM | Malme-3M 16.8 µM | A549 15.5 µM | HCC 2998 17.7 µM

C[C@]12CC[C@H](O)CC1=CC[C@@H]1C2CC[C@]2(C)c3nn(-c4ccc(F)cc4)nc3CC12 (some centres undefined)
inactive: SK-OV-3 39.4 µM | SF-295 34 µM | MCF7 > 100 µM | OVCAR-3 > 100 µM | SNB-75 28.6 µM | TK-10 > 100 µM | 786-0 45.3 µM | SN12C 71 µM | SK-MEL-5 52.8 µM | MDA-MB-435 87.3 µM | MOLT-4 96.4 µM | HCT-116 67.3 µM | DU-145 88.3 µM | NCI-H226 44.2 µM | COLO 205 46.5 µM | MDA-N 81.8 µM | Malme-3M 74 µM | A549 79.4 µM | HCC 2998 24 µM

C=C1C(=O)[C@]23C[C@H]1C[C@@H](O)[C@H]2[C@]1(COC3=O)[C@@H](OC(C)=O)CC[C@@](C)(COC(C)=O)[C@H]1C=O [LOXOTHYRIN A]
inactive: SF-295 > 50 µM | MCF7 17.8 µM | OVCAR-3 > 50 µM | SK-MEL-2 > 50 µM | SNB-75 > 50 µM | TK-10 > 50 µM | 786-0 36.4 µM | SN12C > 50 µM | SK-MEL-5 > 50 µM | MDA-MB-435 > 50 µM | MOLT-4 9.04 µM | HCT-116 37 µM | DU-145 > 50 µM | NCI-H226 9.57 µM | COLO 205 8.53 µM | MDA-N > 50 µM | Malme-3M 11.4 µM | A549 > 50 µM | HCC 2998 > 50 µM

OCC1OC(n2cnc3c2N=CNC[C@H]3O)C(Cl)C1O (some centres undefined)
inactive: SF-295 > 100 µM | MCF7 > 100 µM | OVCAR-3 > 100 µM | SK-MEL-2 > 100 µM | SNB-75 > 100 µM | TK-10 > 100 µM | 786-0 > 100 µM | SN12C > 100 µM | SK-MEL-5 > 100 µM | MDA-MB-435 > 100 µM | MOLT-4 94.2 µM | HCT-116 > 100 µM | DU-145 > 100 µM | COLO 205 > 100 µM | MDA-N > 100 µM | Malme-3M > 100 µM | A549 > 100 µM | HCC 2998 > 100 µM

Cc1ccc(/N=C2\C(=N/c3ccc(C)cc3)N(c3ccc(C)cc3)C(=S)N2C(=O)c2ccccc2)cc1
inactive: SK-OV-3 > 100 µM | SF-295 18.3 µM | MCF7 > 100 µM | OVCAR-3 > 100 µM | SK-MEL-2 > 100 µM | SNB-75 17.5 µM | TK-10 > 100 µM | 786-0 > 100 µM | SN12C > 100 µM | SK-MEL-5 > 100 µM | MDA-MB-435 > 100 µM | MOLT-4 > 100 µM | DU-145 > 100 µM | NCI-H226 > 100 µM | COLO 205 > 100 µM | MDA-N > 100 µM | Malme-3M > 100 µM | A549 > 100 µM | HCC 2998 > 100 µM

Cc1ccc(S(=O)(=O)Oc2cc(S(=O)(=O)O)cc3cc(S(=O)(=O)O)cc(N)c23)cc1
inactive: SK-OV-3 > 100 µM | SF-295 > 100 µM | MCF7 > 100 µM | OVCAR-3 > 100 µM | SK-MEL-2 > 100 µM | SNB-75 > 100 µM | TK-10 > 100 µM | 786-0 > 100 µM | SN12C > 100 µM | SK-MEL-5 > 100 µM | MDA-MB-435 > 100 µM | HCT-116 > 100 µM | DU-145 > 100 µM | NCI-H226 > 100 µM | COLO 205 > 100 µM | MDA-N > 100 µM | Malme-3M > 100 µM | A549 > 100 µM | HCC 2998 > 100 µM

Reference: ChEMBL document CHEMBL1201862, “PubChem BioAssay data set” (2004)
